Test system: Ad5
Experiment: Ad5 genome replication assay (cell-based QPCR) in A549 cells
Conditions: Human adenovirus sp., A549, 72 h, read-out: Ad5 qPCR EC50 (μM)
Procedure: Compounds of the present invention were tested for potency against Ad5 in an Ad5 genome replication assay, a cell-based QPCR assay of Ad5 genome replication in A549 cells, a human lung carcinoma cell line. Serotype of human Ad5, used in this replication assay can also replicate in a NZW rabbit model of adenoviral ocular keratitis.
EC50 values (μM) for inhibition of adenoviral replication were determined by QPCR. Briefly, 10,000 cultured A549 cells were inoculated with 25,000 pfu/well for 3 hrs in 2% FBS F12-K A549 culture media. Following inoculation, A549 cells were treated with log unit dilutions of compound of Formula I (˜10 μM thru˜10 pM) in 10% FBS F12-K culture media with 0.3% DMSO for an additional 3 days. Cell viability was assessed with Alamar Blue (10 μl/well for 2 hrs; fluorescence Ex353; Em595 nm). Plates were washed 3 times with 125 μl PBS, cell lysates were prepared for QPCR analysis using Cells to SNP kit (Life Technologies). Ad5 genome levels per cell were determined with RNaseP and Ad5 hexon Taqman Assays (Life Technologies). EC50, the concentration that inhibited Ad5 genome replication formation by 50%, was estimated from plots of Ad5 genomes/cell vs. compound concentration.

Row | Structure (SMILES) | EC50
1 | CC(C)(C)CC1c2[nH]c3ccc(Cl)cc3c2CCN1C(=O)CCN1CCC(F)CC1 (centres unmarked) [Compound 30] | > 1 µM
2 | O=C(CCN1CCC(C(F)F)CC1)N1CCc2c([nH]c3ccc(Cl)cc23)C1CC1CCCC1 (centres unmarked) [Compound 31] | 0.1 to 1 µM
3 | CC(C)(C)CC1c2[nH]c3ccc(Cl)cc3c2CCN1C(=O)CCN1CCC(C(F)F)CC1 (centres unmarked) [Compound 32] | > 1 µM
4 | CC(C)CC1c2[nH]c3ccc(Cl)cc3c2CCN1C(=O)C(C)(C)CN1CCC(F)(F)CC1 (centres unmarked) [Compound 33] | > 1 µM
5 | CC(C)C[C@H]1c2[nH]c3ccc(Cl)cc3c2CCN1C(=O)CCNC1CCC(F)(F)CC1 [Compound 34] | > 1 µM
6 | CC(C)CC1c2[nH]c3ccc(Cl)cc3c2CCN1S(=O)(=O)CCN1CCC(F)(F)CC1 (centres unmarked) [Compound 36] | > 1 µM
7 | CC(C)CC1c2[nH]c3ccc(Cl)cc3c2CCN1C(=O)C(C)CN1CCC(F)(F)CC1 (centres unmarked) [Compound 37] | 0.1 to 1 µM
8 | CC(C)C[C@H]1c2[nH]c3ccc(Cl)cc3c2CCN1C(=O)OCCN1CC[C@H](F)C1 [Compound 38] | 0.1 to 1 µM
9 | CC(C)CC1c2[nH]c3ccc(Cl)cc3c2CCN1C(=O)C1CN(CC(C)C)C1 (centres unmarked) [Compound 39] | > 1 µM
10 | CC(C)CC1c2[nH]c3ccc(Cl)cc3c2CCN1C(=O)CNC1CCCCC1 (centres unmarked) [Compound 40] | > 1 µM
11 | CC(C)CC1c2[nH]c3ccc(Cl)cc3c2CCN1C(=O)CN1CC(F)C1 (centres unmarked) [Compound 41] | 0.1 to 1 µM
12 | CC(C)CC1c2[nH]c3ccc(Cl)cc3c2CCN1C(=O)CC1CCCO1 (centres unmarked) [Compound 42] | 0.1 to 1 µM
13 | CC(C)CC1c2[nH]c3ccc(Cl)cc3c2CCN1C(=O)CCN1CCCCC12CC2 (centres unmarked) [Compound 44] | 0.1 to 1 µM
14 | CC(C)CC1c2[nH]c3ccc(Br)cc3c2CCN1C(=O)CCN1CCC(F)(F)CC1 (centres unmarked) [Compound 45] | < 0.1 µM
15 | CC(C)CC1c2[nH]c3ccc(Cl)cc3c2CCN1C(=O)CCC1CCN(CC(F)F)CC1 (centres unmarked) [Compound 46] | 0.1 to 1 µM
16 | CC(C)CC1c2[nH]c3ccc(Cl)cc3c2CCN1C(=O)CC(O)c1ccccc1 (centres unmarked) [Compound 48] | 0.1 to 1 µM
17 | CC(C)CC1c2[nH]c3ccc(Cl)cc3c2CCN1C(=O)CN1CC[C@H](F)C1 (some centres unmarked) [Compound 49] | > 1 µM
18 | CC(C)CC1c2[nH]c3ccc(Cl)cc3c2CCN1C(=O)C1CCN(CCC(F)(F)F)CC1 (centres unmarked) [Compound 50] | 0.1 to 1 µM
19 | COc1ccc2[nH]c3c(c2c1)CCN(C(=O)CCN1CCC(F)(F)CC1)C3CC(C)C (centres unmarked) [Compound 51] | 0.1 to 1 µM
20 | CC(C)CC1c2[nH]c3ccc(Cl)cc3c2CCN1C(=O)c1ccccn1 (centres unmarked) [Compound 52] | 0.1 to 1 µM
21 | CC(C)CC1c2[nH]c3ccc(Cl)cc3c2CCN1C(=O)COC1CCN(CC(F)F)CC1 (centres unmarked) [Compound 53] | > 1 µM
22 | CC(C)C[C@H]1c2[nH]c3ccc(Cl)cc3c2CCN1C(=O)C1CN(CC(F)F)C1 [Compound 54] | 0.1 to 1 µM
23 | CC(C)CC1c2[nH]c3ccc(Cl)cc3c2CCN1C(=O)CN1CCOCC1 (centres unmarked) [Compound 55] | > 1 µM

Row | Structure (SMILES) | EC50
24 | CC(C)CC1c2[nH]c3ccc(Cl)cc3c2CCN1c1nc(CN2CCC(F)(F)CC2)co1 (centres unmarked) [Compound 56] | 0.1 to 1 µM
25 | CC(C)CC1c2[nH]c3ccc(Cl)cc3c2CCN1c1nc(CN2CCC(F)CC2)co1 (centres unmarked) [Compound 57] | 0.1 to 1 µM
26 | CC(C)CC1c2[nH]c3ccc(Cl)cc3c2CCN1C(=O)CCc1ccco1 (centres unmarked) [Compound 58] | < 0.1 µM
27 | CC(C)CC1c2[nH]c3ccc(Cl)cc3c2CCN1C(=O)Cc1ccccn1 (centres unmarked) [Compound 59] | > 1 µM
28 | CC(C)CC1c2[nH]c3ccc(Cl)cc3c2CCN1C(=O)Cc1cccnc1 (centres unmarked) [Compound 60] | > 1 µM
29 | CC(C)CC1c2[nH]c3ccc(Cl)cc3c2CCN1C(=O)Cc1ccncc1 (centres unmarked) [Compound 61] | > 1 µM
30 | CC(C)CC1c2[nH]c3ccc(Cl)cc3c2CCN1C(=O)c1ccccc1 (centres unmarked) [Compound 62] | 0.1 to 1 µM
31 | CC(C)CC1c2[nH]c3ccc(Cl)cc3c2CCN1C(=O)Cc1ccccc1 (centres unmarked) [Compound 63] | 0.1 to 1 µM
32 | CC(C)CC1c2[nH]c3ccc(Cl)cc3c2CCN1C(=O)c1cccnc1 (centres unmarked) [Compound 64] | 0.1 to 1 µM
33 | CC(C)CC1c2[nH]c3ccc(Cl)cc3c2CCN1C(=O)c1ccncc1 (centres unmarked) [Compound 65] | 0.1 to 1 µM
34 | CC(C)CC1c2[nH]c3ccc(Cl)cc3c2CCN1C(=O)c1ccco1 (centres unmarked) [Compound 66] | > 1 µM
35 | CC(C)CC1c2[nH]c3ccc(Cl)cc3c2CCN1C(=O)C1CCN(c2ncccn2)CC1 (centres unmarked) [Compound 67] | 0.1 to 1 µM
36 | CC(C)CC1c2[nH]c3ccc(Cl)cc3c2CCN1C(=O)COC1CCCCC1 (centres unmarked) [Compound 68] | 0.1 to 1 µM
37 | CC(C)CC1c2[nH]c3ccc(Cl)cc3c2CCN1C(=O)COC1CCN(C2CC2)CC1 (centres unmarked) [Compound 69] | > 1 µM
38 | CC(C)CC1c2[nH]c3ccc(Cl)cc3c2CCN1C(=O)CNc1ccccc1 (centres unmarked) [Compound 70] | < 0.1 µM
39 | CC(C)CC1c2[nH]c3ccc(Cl)cc3c2CCN1C(=O)COc1ccccc1 (centres unmarked) [Compound 71] | 0.1 to 1 µM
40 | CC(C)CC1c2[nH]c3ccc(Cl)cc3c2CCN1C(=O)CCc1ccc(O)cc1 (centres unmarked) [Compound 72] | > 1 µM
41 | CC(C)CC1c2[nH]c3ccc(Cl)cc3c2CCN1C(=O)CN(C)c1ccccc1 (centres unmarked) [Compound 74] | 0.1 to 1 µM
42 | CC(C)CC1c2[nH]c3ccc(Cl)cc3c2CCN1C(=O)CC1CCN(C2CC2)CC1 (centres unmarked) [Compound 75] | 0.1 to 1 µM
43 | CC(C)CC1c2[nH]c3ccc(Cl)cc3c2CCN1C(=O)[C@@H](N)Cc1ccccc1 (some centres unmarked) [Compound 76] | > 1 µM
44 | O=C(CCC1CCCCC1)N1CCc2c([nH]c3ccc(Cl)cc23)C1CN1CCC(F)(F)CC1 (centres unmarked) [Compound 78, 1-(6-chloro-1-1((4,4-difluoropiperidin-1-yl)methyl)-3,4-dihydro-1H-pyrido[3,4-b]indol-2(9H)-yl)-3-cyclohexylpropan-1-one] | 0.1 to 1 µM
45 | CC(C)CC1c2[nH]c3ccc(Cl)cc3c2CCN1CC(=O)NC1CCCCC1 (centres unmarked) [Compound 79] | 0.1 to 1 µM
46 | O=C(CCC1CCCCC1)N1CCc2c([nH]c3ccc(Cl)cc23)C1CN1CCCCC1 (centres unmarked) [Compound 80] | > 1 µM

Row | Structure (SMILES) | EC50
47 | CC(C)CC1c2[nH]c3ccc(Cl)cc3c2CCN1C(=O)C1CN(c2ncccn2)C1 (centres unmarked) [Compound 81] | 0.1 to 1 µM
48 | Cc1nnc(CCC(=O)N2CCc3c([nH]c4ccc(Cl)cc34)C2CC(C)C)o1 (centres unmarked) [Compound 82] | 0.1 to 1 µM
49 | CC(C)C[C@H]1c2[nH]c3ccc(Cl)cc3c2CCN1C(=O)C1CCN(CC(F)F)CC1 [Compound 83] | 0.1 to 1 µM
50 | CC(C)CC1c2[nH]c3ccc(Cl)cc3c2CCN1C(=O)CN1CCC(F)(F)C1 (centres unmarked) [Compound 84] | 0.1 to 1 µM
51 | CC(C)CC1c2[nH]c3ccc(Cl)cc3c2CCN1C(=O)CN1CC(F)(F)C1 (centres unmarked) [Compound 85, 1-(6-chloro-1-isobutyl-3,4-dihydro-1H-pyrido[3,4-b]indol-2(9H)-yl)-2-(3,3-difluoroazetidin-1-yl)ethanone] | < 0.1 µM
52 | CC(C)CC1c2[nH]c3ccc(Cl)cc3c2CCN1C(=O)CNCCN1CCC(F)(F)CC1 (centres unmarked) [Compound 86] | > 1 µM
53 | CC(C)CC1c2[nH]c3ccc(Cl)cc3c2CCN1Cc1ccccn1 (centres unmarked) [Compound 87] | 0.1 to 1 µM
54 | CC(C)CC1c2[nH]c3ccc(Cl)cc3c2CCN1Cc1ccco1 (centres unmarked) [Compound 88] | 0.1 to 1 µM
55 | CC(C)CC1c2[nH]c3ccc(Cl)cc3c2CCN1C(=O)CNCc1ccco1 (centres unmarked) [Compound 89] | > 1 µM
56 | CC(C)CC1c2[nH]c3ccc(Cl)cc3c2CCN1C(=O)CNCc1ccno1 (centres unmarked) [Compound 90] | > 1 µM
57 | CC(C)C[C@H]1c2[nH]c3ccc(Cl)cc3c2CCN1C(=O)CNC1CCC(F)(F)CC1 [Compound 94, (S)-1-(6-chloro-1-isobutyl-3,4-dihydro-1H-pyrido[3,4-b]indol-2(9H)-yl)-2-((4,4-difluorocyclohexyl)amino)ethanone] | < 0.1 µM
58 | CC(C)CC1c2[nH]c3ccc(Cl)cc3c2CCN1C1CC1 (centres unmarked) [Compound 95] | < 0.1 µM
59 | CC(C)CC1c2[nH]c3ccc(Cl)cc3c2CCN1CC1CC1 (centres unmarked) [Compound 96] | 0.1 to 1 µM
60 | CC(C)C[C@H]1c2[nH]c3ccc(Br)cc3c2CCN1C(=O)CNC1CC1 [Compound 98, (S)-1-(6-bromo-1-isobutyl-3,4-dihydro-1H-pyrido[3,4-b]indol-2(9H)-yl)-2-(cyclopropylamino)ethanone] | < 0.1 µM
61 | CC(C)C[C@H]1c2[nH]c3ccc(Cl)cc3c2CCN1C(=O)CC1CCN(CC(F)F)CC1 [Compound 100] | < 0.1 µM
62 | CC(C)CC1c2[nH]c3ccc(Cl)cc3c2CCN1CCN1CC[C@H](F)C1 (some centres unmarked) [Compound 101] | > 1 µM
63 | CC(C)CC1c2[nH]c3ccc(Cl)cc3c2CCN1C(=O)C1(F)CNC1 (centres unmarked) [Compound 102] | 0.1 to 1 µM
64 | CC(C)CC1c2[nH]c3ccc(Cl)cc3c2CCN1C(=O)C1(F)CN(CC(C)C)C1 (centres unmarked) [Compound 103, (6-chloro-1-isobutyl-3,4-dihydro-1H-pyrido[3,4-b]indol-2(9H)-yl)(3-fluoro-1-isobutylazetidin-3-yl)methanone] | < 0.1 µM
65 | CC(C)C[C@H]1c2[nH]c3ccc(Cl)cc3c2CCN1C(=O)CNC1CC(F)(F)C1 [Compound 104, (S)-1-(6-chloro-1-isobutyl-3,4-dihydro-1H-pyrido[3,4-b]indol-2(9H)-yl)-2-((3,3-difluorocyclobutyl)amino)ethanone] | < 0.1 µM
66 | CC(C)C[C@H]1c2[nH]c3ccc(Br)cc3c2CCN1C(=O)CCN1CC[C@H](F)C1 [Compound 105] | 0.1 to 1 µM
67 | CCCCN1CC(F)(C(=O)N2CCc3c([nH]c4ccc(Cl)cc34)C2CC(C)C)C1 (centres unmarked) [Compound 106] | < 0.1 µM
68 | CC(C)CC1c2[nH]c3ccc(Cl)cc3c2CCN1C(=O)C1CN(CC2CC2(F)F)C1 (centres unmarked) [Compound 107] | > 1 µM
